Laboratory results published in article PMC6150735, “Molecular Docking-Based Design and Development of a Highly Selective Probe Substrate for UDP-glucuronosyltransferase 1A10” (Molecular Pharmaceutics, 2018).
Entries after “also recorded” stand apart in the source; their conditions may differ.

What was measured:
[1] = biological target: T1, UGT1A10 mutant 1A10-H210M (Homo sapiens, UniProt Q9HAW8, H210M); experiment: Glucuronidation kinetics by UGT1A10 mutant 1A10-H210M (fluorescence decrease, 96-well plate); type: biochemical; conditions: mutant versus wild-type UGT1A10
T1 construct: His-tag; made in house; host or cells: baculovirus-infected SF9 insect cells
T1 sequence (Q9HAW8 26-530 H210M): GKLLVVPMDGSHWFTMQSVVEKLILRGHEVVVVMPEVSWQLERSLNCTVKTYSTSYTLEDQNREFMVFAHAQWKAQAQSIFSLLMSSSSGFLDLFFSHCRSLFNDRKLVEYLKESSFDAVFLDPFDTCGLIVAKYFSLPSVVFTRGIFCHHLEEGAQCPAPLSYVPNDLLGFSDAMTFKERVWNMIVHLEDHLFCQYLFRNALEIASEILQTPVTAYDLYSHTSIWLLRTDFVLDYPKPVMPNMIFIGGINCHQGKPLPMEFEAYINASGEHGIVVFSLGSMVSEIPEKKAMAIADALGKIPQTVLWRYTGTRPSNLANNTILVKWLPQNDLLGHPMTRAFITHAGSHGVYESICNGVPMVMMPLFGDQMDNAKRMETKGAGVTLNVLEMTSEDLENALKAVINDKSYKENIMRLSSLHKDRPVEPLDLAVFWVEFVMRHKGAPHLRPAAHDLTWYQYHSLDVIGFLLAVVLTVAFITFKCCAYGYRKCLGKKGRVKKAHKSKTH
Description: The UGT1A10 mutant 1A10-H210 M was prepared according to the QuikChange methodology, using the cloned UGT1A10 in pFastBac[42] as a template and the following two oligonucleotides:
The entire coding sequence of UGT1A10 in the mutant clone was sequenced, and subsequently, recombinant baculovirus was prepared and used to express the mutant enzyme in baculovirus-infected SF9 insect cells.
The incubation mixtures for glucuronidation assays contained 100 mM Tris-HCl buffer pH 7.4, 2.5 mM MgCl2, 0.5 mM UDPGA, recombinant UGT, or microsomes as the enzyme source and 0–15 μM of the test aglycone substrate. When the incubation mixtures contained microsomes, alamethicin was used at a final concentration of 12.5 μg/mL, but it was not included in the recombinant enzyme assays.[43] In the first experiments three negative control samples were tested, namely (i) without the substrate 7-hydroxycoumarin derivative, (ii) without the cofactor UDPGA, or (iii) without the enzyme source. In subsequent experiments, the control samples lacked the enzyme source since it gave the highest fluorescence background. […] Fluorescence spectra (excitation 200–420 nm; emission 400–600 nm) or fluorescence decrease at 390 nm excitation and 460 nm emission, were measured in these preliminary experiments, using a Shimadzu RF-5000 spectrophotofluorometer.
Most of the glucuronidation assays were carried out in 96 multiwell plate format, and incubations were carried out in 100 μL and at 37 °C, in the presence of Tris–HCl buffer pH 7.4, UDPGA, and the tested 7-hydroxycoumarin derivative, at the indicated concentrations. Fluorescence decline in the multiwell plate experiments was monitored every other minute, for 40 min, using an excitation filter at 405 nm and detection at 460 nm, in a Victor2 1420 Multilabel counter (PerkinElmer, Life Sciences, Turku, Finland). The fluorescence values were transformed into molarity using the aglycone substrates for making the respective standard curves. […] Enzyme catalyzed glucuronidation rate was calculated by subtracting the blank value from the full reaction value. […]

[2] = tested on: human UGTs; experiment: Recombinant human UGT screen: glucuronidation rates across human UGTs; type: biochemical; conditions: 10 μM aglycone
Description: Recombinant human UGTs 1A1, 1A3, 1A6, 1A7, 1A8, 1A9, 1A10, 2A1, 2A2, 2A3, 2B4, 2B10, 2B7, and 2B17 were produced, as His-tagged proteins, in baculovirus-infected insect cells as previously described.[37]−[39] The relative expression level of each of these recombinant UGTs was evaluated by immunodetection, using monoclonal antibody against the His-tag, as described elsewhere.[40] A numeric value of 1.0 was given to the expression level of UGT1A8 and the relative expression level of each of the other UGTs was related to this value. Normalized activities were obtained by dividing the glucuronidation rate values by the relative expression level of the tested UGT. In addition, UGTs 1A4, 2B10, and 2B15 were purchased from Corning Life Sciences (New York) and are marked, in Figure 5, with a “C” to indicate that they are commercial enzymes. The expression levels of the UGTs in the commercial samples could not be determined, so their protein concentration was used to calculate the reaction rate.
(§1) The incubation mixtures for glucuronidation assays contained 100 mM Tris-HCl buffer pH 7.4, 2.5 mM MgCl2, 0.5 mM UDPGA, recombinant UGT, or microsomes as the enzyme source and 0–15 μM of the test aglycone substrate. When the incubation mixtures contained microsomes, alamethicin was used at a final concentration of 12.5 μg/mL, but it was not included in the recombinant enzyme assays.[43] In the first experiments three negative control samples were tested, namely (i) without the substrate 7-hydroxycoumarin derivative, (ii) without the cofactor UDPGA, or (iii) without the enzyme source. In subsequent experiments, the control samples lacked the enzyme source since it gave the highest fluorescence background. Preliminary experiments were done under different conditions than most of the later assays, namely in 2.5 mL of 100 mM phosphate buffer pH 7.4, containing 500 μg pig liver microsomes, 1.0 μM compound 6 and 0.5 mM UDPGA, at room temperature. Fluorescence spectra (excitation 200–420 nm; emission 400–600 nm) or fluorescence decrease at 390 nm excitation and 460 nm emission, were measured in these preliminary experiments, using a Shimadzu RF-5000 spectrophotofluorometer.
(§2) Most of the glucuronidation assays were carried out in 96 multiwell plate format, and incubations were carried out in 100 μL and at 37 °C, in the presence of Tris–HCl buffer pH 7.4, UDPGA, and the tested 7-hydroxycoumarin derivative, at the indicated concentrations. Fluorescence decline in the multiwell plate experiments was monitored every other minute, for 40 min, using an excitation filter at 405 nm and detection at 460 nm, in a Victor2 1420 Multilabel counter (PerkinElmer, Life Sciences, Turku, Finland). The fluorescence values were transformed into molarity using the aglycone substrates for making the respective standard curves. Slopes of the substrate concentration decrease per minute were calculated using linear regression analysis, in which the linear part of the kinetic assay indicated the glucuronidation rate. Enzyme catalyzed glucuronidation rate was calculated by subtracting the blank value from the full reaction value. The intra-assay variability of the kinetic assays was 6% when compound 6 was used as the aglycone substrate. Kinetic analyses were also performed in the same 96 multiwell plates format, with excitation filter at 405 nm and detection at 460 nm, using 6–8 different substrate concentrations per substrate and two different protein concentrations for both the wild-type and mutant UGT1A10. The higher concentrations, 13.5 mg/L for UGT1A10 and 12.0 mg/L for the UGT1A10 mutant, were used when the substrates were HFC, compounds 4 and 6, whereas the lower protein concentrations, 6.75 and 6.0 mg/L for UGT1A10 and the mutant, respectively, were used when the substrates were compounds 1, 2, 3, and 5.

[3] = tested on: human liver microsomes (HLM); experiment: Glucuronidation by human liver microsomes (HLM); type: in vitro ADME; conditions: 10 μM aglycone
Description: (§3) A commercial HLM pool (cat no:452210, BD Gentest, Bedford, MA) and human intestine microsomes (HIM) pool (lot. no 1110189, XenoTech, Kansas City, KS) were purchased. Pig liver samples were prepared from untreated female pigs that were used for practicing surgical procedures at the University of Kuopio (currently: University of Eastern Finland, Kuopio campus). Other animal liver microsomes were prepared as described previously.[41] The Ethics Committee for Animal Experiments, University of Kuopio, approved these experiments.
as §1, §2

[4] = Absorbance spectra of coumarin derivatives; type: physicochemical; conditions: 10 μM, 100 mM Tris–HCl pH 7.4, 10% dimethyl sulfoxide
Description: (§4) The absorbance spectra of 10 μM coumarin derivatives at 100 mM Tris–HCl pH 7.4 containing 10% dimethyl sulfoxide were measured using a Hitachi U-2000 Spectrophotometer (Tokyo, Japan). Excitation and emission fluorescence spectra of 0.1 μM coumarin derivatives in 100 mM Tris-HCl pH 7.4 were measured using a Shimadzu RF-5000 spectrophotofluorometer (Tokyo, Japan). The excitation spectra was from 200 to 420 at 460 nm emission and the emission spectra was from 400 to 600 at 390 nm excitation (data in Supplementary Table S1 and Figures S1 and S2). The effect of pH on fluorescence intensity was determined at 405 nm excitation and 460 nm emission, in the presence of 1.5% trichloroacetic acid, 100 mM phosphate buffers at pH 5, 6, 7, 8, and 9, or 1.6 M glycine–NaOH pH 10.4.

[5] = Excitation and emission fluorescence spectra of coumarin derivatives; type: physicochemical; set-up: dose or concentration left out as unconfirmed
Description: as §4, with “Excitation and emission fluorescence spectra of 0.1 μM coumarin derivatives in 100 mM Tris-HCl pH 7.4 were measured using a Shimadzu RF-5000 spectrophotofluorometer (Tokyo, Japan).” left out

[6] = tested on: UGT1A1; experiment: Recombinant human UGT screen: glucuronidation by UGT1A1; type: biochemical; conditions: 10 μM aglycone, recombinant UGTs
Description: Recombinant human UGTs 1A1, 1A3, 1A6, 1A7, 1A8, 1A9, 1A10, 2A1, 2A2, 2A3, 2B4, 2B10, 2B7, and 2B17 were produced, as His-tagged proteins, in baculovirus-infected insect cells as previously described.[37]−[39] The relative expression level of each of these recombinant UGTs was evaluated by immunodetection, using monoclonal antibody against the His-tag, as described elsewhere.[40] A numeric value of 1.0 was given to the expression level of UGT1A8 and the relative expression level of each of the other UGTs was related to this value. Normalized activities were obtained by dividing the glucuronidation rate values by the relative expression level of the tested UGT. […] The expression levels of the UGTs in the commercial samples could not be determined, so their protein concentration was used to calculate the reaction rate.
The incubation mixtures for glucuronidation assays contained 100 mM Tris-HCl buffer pH 7.4, 2.5 mM MgCl2, 0.5 mM UDPGA, recombinant UGT, or microsomes as the enzyme source and 0–15 μM of the test aglycone substrate. […] In subsequent experiments, the control samples lacked the enzyme source since it gave the highest fluorescence background. […] Fluorescence spectra (excitation 200–420 nm; emission 400–600 nm) or fluorescence decrease at 390 nm excitation and 460 nm emission, were measured in these preliminary experiments, using a Shimadzu RF-5000 spectrophotofluorometer. […]

[7] = tested on: human intestinal microsomes (HIM); experiment: Glucuronidation by human intestinal microsomes (HIM); type: in vitro ADME; conditions: 10 μM aglycone
Description: as §3, §1, §2

| Change of Km by the H210M mutation (in words) [1] | Amax [4] [nm] | ε abs [4] [M⁻¹ cm⁻¹] | Fluorescence EMmax [5] [nm] | Fluorescence EXmax [5] [nm] | Glucuronidation rate, HLM compared with HIM (in words) [7] | Structure (SMILES) | Selectivity among human UGTs ([2]; other UGTs at very low rates) | Glucuronidation by HLM (in words) [3] | Glucuronidation rate by UGT1A1 relative to the corresponding UGT1A10 rate [6] | UGT(s) that primarily glucuronidate the substrate ([2]; control substrates) |
| --- | --- | --- | --- | --- | --- | --- | --- | --- | --- | --- |
| considerably increased | 352 | 20000 | 475 | 395 |  | O=c1oc2cc(O)ccc2cc1-c1ccc(O)cc1 [Compound 2, 7-hydroxy-3-(4-hydroxyphenyl)-2H-chromen-2one] | selective for UGT1A10 | not glucuronidated by HLM at all, or only at very low rates; also recorded: very low or below the detection limit |  |  |
|  | 344 | 19000 | 466 |  |  | O=c1oc2cc(O)ccc2cc1-c1ccc(F)cc1 [Compound 1, 7-hydroxy-3-(4-fluorophenyl)-2H-chromen-2-one] |  |  | about 40% |  |
|  | 350 | 17300 | 472 | 368 |  | COc1ccc(-c2cc3ccc(O)cc3oc2=O)cc1 [Compound 3, 7-hydroxy-3-(4-methoxyphenyl)coumarin] |  |  | ~20% |  |
| increase |  |  |  |  | much higher rates by HLM than by HIM | O=c1cc(C(F)(F)F)c2ccc(O)cc2o1 [HFC, 4-(trifluoromethyl)-7-hydroxycoumarin, reference compound] |  |  |  | UGT1A6 and UGT1A10 |
